The test system of one experiment is NALM6. In words: Combination of tolinapant and CD19 CAR-KHYG-1 in NALM6 subcutaneous tumor-bearing NOG mice. The class given is in vivo, mouse. The protocol:
(§1) Each mouse was identified with a number attached to the tail of the mouse. During the breeding period, the mice were housed in groups of 5 mice each and bred in a breeding room at a temperature of 24° C.
After grouping, CD19 CAR KHYG-1 cells and KHYG-1 cells were intratumorally administered 4 times in total according to the group constitution.
The evaluation period was set up to day 17. Grouping and pharmacological evaluation were performed using the results of tumor volume measurement with a caliper as an indicator. The tumor volume measurement and body weight measurement were performed twice a week and before each administration. […]
On the 21th day after the transplantation, the long diameter and the short diameter were measured and the tumor volume was calculated. […]
4) For KHYG-1 cell administration solution and CD19 CAR-KHYG-1 cell administration solution, the number of viable cells was counted and a cell suspension with the cell density being adjusted according to the group composition table was prepared and intratumorally administered twice a week at 0.1 mL/body (4 times in total).
The tumor diameter was determined by measuring the short diameter and the long diameter using an electronic caliper (produced by Mitutoyo Corporation). After tumor cell transplantation, the tumor diameter was measured twice a week. […]

Another experiment has as its system MM.1S-luc2. As to the kind of experiment: Combination of tolinapant and activated integrin β7 CAR-T in MM.1S-luc2 tumor-bearing NOG mice. The class given is in vivo, mouse. Here is the method: as §1
The evaluation period was set to up to day 14 or day 21. Grouping and pharmacological evaluation were performed using tumor luminescence values as determined by IVIS as an indicator. The luminescence value as determined by IVIS and body weight were measured twice a week.
After grouping, the individuals were identified by marking on the tail of each mouse.
For the measurement, IVIS (trademark) Lumina X5 was used.

Experimental findings from patent US20250127813A1, “COMBINATION DRUG” (OTSUKA PHARMACEUTICAL CO., LTD., priority 2021, published 2025) are described below.

Entries after “also recorded” stand apart in the source; their conditions may differ.

As for `C[C@@H]1CN(CC(=O)N2CC(C)(C)c3nc(CO)c(Cc4ccc(F)cc4)cc32)[C@@H](CN2CCOC[C@H]2C)CN1` [Tolinapant, 1-[6-[(4-fluorophenyl)methyl]-5-(hydroxymethyl)-3,3-dimethyl-2H-pyrrolo[3,2-b]pyridin-1-yl]-2-[(2R,5R)-5-methyl-2-[[(3R)-3-methylmorpholin-4-yl]methyl]piperazin-1-yl]ethanone], the “combination effect of tolinapant and CD19 CAR-KHYG-1 (tumor volume)” value with NALM6 (tolinapant 16 mg/kg po every day + CD19 CAR-KHYG-1 1×10^7 cells/body intratumoral Day 0, 4, 7, 11, evaluated for 17 days) is “A significant combination effect was observed; also recorded: a proliferation suppression effect was clearly shown on day 7 and thereafter; also recorded: significant combination effects were observed on day 17; also recorded: significant, highly reproducible results”. For the same compound, in the experiment on NALM6 (tolinapant alone, 16 mg/kg po every day), the “antitumor effect of tolinapant alone” value was “no antitumor effects were observed”. The “combination effect of tolinapant and aITGB7 CAR-T (tumor luminescence value)” value in the experiment on MM.1S-luc2 (tolinapant 16 mg/kg po every day + aITGB7 CAR-T 3×10^4 cells/body iv, evaluated for 21 days) is “A significant combination effect was observed; also recorded: tumor regression was clearly observed on day 11 and thereafter; also recorded: a significant synergistic effect was observed; also recorded: significant, highly reproducible results”. In addition, in the experiment on MM.1S-luc2 (tolinapant alone), the “effect of tolinapant administered alone on MM.1S (MM)” value is on record as “no effect”.
